Laboratory results from US20020006406A1, “METHOD FOR THE TREATMENT OF STAPHYLOCOCCAL DISEASE” (priority 1997, published 2002).
In brackets after ≈: the same amount, converted by molar mass.

Key:
S. aureus Smith = test: Acute S. aureus infection model in mice (survival); type: in vivo
Description: The efficacy of lysostaphin was compared to that of vancomycin in an acute infection model in mice. S. aureus Smith was cultured overnight, with moderate agitation, in Veal Infusion broth (Difco) and diluted in broth containing 5% hog gastric mucin (Difco). Male Swiss-Webster mice (Taconic Farms, Germantown, N.Y.) weighing approximately 20 grams were infected intraperitoneally with 10^5-10^6 viable cells, approximately tenfold the inoculum that reproducibly killed all untreated animals within 48 h. There were six mice in each treatment group. Lysostaphin was administered intravenously (in 0.1 ml 5% dextrose for injection) or subcutaneously (in 0.2 ml), within 10 min of infection. Vancomycin was administered subcutaneously.

S. aureus = test: MIC by broth macrodilution in glass tubes; type: cell-based
Description: In this experiment, MICs were determined by broth macrodilution in 1 ml final volumes in glass tubes. Otherwise, the methodology was as described above.

S. aureus strain AG461 [1] = test: Time-kill experiment, S. aureus AG461 (FIG. 1); type: cell-based; settings: 2 and 16 μg/ml (1x and 8x MIC), three hours of contact
Description: The bactericidal activity of lysostaphin against S. aureus was also studied by means of time-kill experiments. In one experiment of this type, S. aureus strain AG461, a methicillin-resistant clinical isolate from Genoa, Italy, was inoculated into Mueller-Hinton broth (Difco) and grown at 37° C. with gentle shaking until it reached approximately 10^8 viable cells per ml (CFU/ml), as estimated from the absorbance of the culture at 600 nm. The culture was then diluted with fresh broth to approximately 10^6 CFU/ml and 5 ml aliquots were placed in several different flasks for exposure to different concentrations of antibacterial agents. Incubation was continued, with gentle shaking, at 37° C., and samples were withdrawn at intervals for determination of viable cells. Serial 10-fold dilutions of the samples were made in sterile saline (0.9% NaCl in distilled water) and duplicate 0.1 ml aliquots of appropriate dilutions were plated on Tryptic Soy agar plates (Remel) using the agar inclusion method. (In this method, the aliquot to be plated is added to 2.5 ml of top agar, which is mixed and poured onto a plate. Top agar consisted of molten Tryptic Soy agar (Difco) diluted 2-fold with Difco Tryptic Soy broth to give a final agar concentration of 0.75%, w/v.) The plates were incubated for 24-48 hours at 36° C. and the colonies were counted manually. […]

[2] = system: methicillin-resistant VISA strain of S. aureus; test: Vancomycin MIC for the laboratory-selected VISA strain; type: cell-based; settings: Staphylococcus aureus, variant strain selected after cycles of growth in glycopeptide-containing medium
Description: Strains that are both methicillin-resistant and resistant to vancomycin are a newly emerging problem. A variant strain of this type was selected after cycles of growth in glycopeptide-containing medium. The vancomycin MIC for the resulting strain was 8 μg/ml, as reported also for naturally occurring VISA strains isolated from patients in the U.S. and Japan. (Centers for Disease Control and Prevention, Morbidity and Mortality Weekly Report 1997; 46:813-815). Staphylococcal isolates are considered to be susceptible to vancomycin if the MIC is less than or equal to 4 μg/ml and to be completely resistant if the MIC is greater than or equal to 32 μg/ml (National Committee for Clinical Laboratory Standards, 1993. Approved Standard M2-A5. Performance standards for antimicrobial disk susceptibility tests—Fifth edition. National Committee for Clinical Laboratory Standards, Villanova, Pa.)

S. aureus strain AG461 [3] = settings: strain AG461 (methicillin-resistant clinical isolate)
Description: The different concentrations of lysostaphin and vancomycin used were one and eight times their respective MIC.

| Molecule | % survival (S. aureus Smith; Table 4 experiment, dose 0.08 mg/kg) [%] | % survival (S. aureus Smith; Table 4 experiment, dose 0.16 mg/kg) [%] | % survival (S. aureus Smith; Table 4 experiment, dose 0.31 mg/kg) [%] | % survival (S. aureus Smith; Table 4 experiment, dose 0.63 mg/kg) [%] | MIC (S. aureus; strain AG402 (clinical isolate)) | MIC (S. aureus; strain AG404 (clinical isolate, methicillin-resistant)) | MIC (S. aureus; strain AG414) | MIC (S. aureus; strain AG417) | bactericidal action (killing of the bacteria) (S. aureus strain AG461 [1]) | % survival (S. aureus Smith; 5 mg/kg sc) [%] | MIC [2] [µg/mL] | MIC (lower time-kill concentration stated to be one times MIC) (S. aureus strain AG461 [3]) [µg/mL] |
| --- | --- | --- | --- | --- | --- | --- | --- | --- | --- | --- | --- | --- |
| Gly218Asp: lysostaphin variant with a single change, glycine to aspartic acid, at position 218 of the mature protein | 0 | 17 | 33 | 83 | .06 µg/mL | .06 µg/mL | .03 µg/mL | .03 µg/mL |  |  |  |  |
| CN[C@H](CC(C)C)C(=O)N[C@H]1C(=O)N[C@@H](CC(N)=O)C(=O)N[C@H]2C(=O)N[C@H]3C(=O)N[C@H](C(=O)N[C@H](C(=O)O)c4cc(O)cc(O)c4-c4cc3ccc4O)[C@H](O)c3ccc(c(Cl)c3)Oc3cc2cc(c3O[C@@H]2O[C@H](CO)[C@@H](O)[C@H](O)[C@H]2O[C@H]2C[C@](C)(N)[C@H](O)[C@H](C)O2)Oc2ccc(cc2Cl)[C@H]1O [vancomycin, reference compound] |  |  |  |  |  |  |  |  | very little killing | 100 | 8 (≈ 5.52 µM) | 2 (≈ 1.38 µM) |
